In patent US11542259B2, “Compounds for the treatment of kinase-dependent disorders” (Exelixis, Inc., priority 2018, dated 2023):

Experiments:
[1] = target: Human Mer (residues R557-E882 with H628Q and R794A) (Homo sapiens (Human), UniProt Q12866); assay: Human Mer kinase assay (33P radiometric, KinaseProfiler); format: biochemical; conditions: 10 μM ATP
Description: (§1) Kinase activity and compound inhibition were investigated using the ^33P-Phosphoryl transfer radiometric kinase assay, performed using the KinaseProfiler™ service of Eurofins Pharma Discovery Services UK Limited. Dose-response experiments were performed using nine compound concentrations in a 96-well microtiter plate. For each assay, all compounds were prepared to a 50× final assay concentration (50 μM) in 100% DMSO, then diluted in a half-log series, with the final top concentration at 1 μM. This working stock of the compound was added to the assay well as the first component in the reaction, followed by the remaining components as detailed in the following assay protocols below. The positive control wells (100% kinase activity) contain all components of the reaction including 2% DMSO (control for solvent effects), except the compound of interest. Blank wells contain all components of the reaction, with the reference inhibitor, staurosporine. This reference compound was used to abolish kinase activity and generated the 0% kinase activity base-line. IC50 values were calculated by nonlinear regression analysis using the sigmoidal dose-response (variable slope) curve fit on XLFit version 5.3 (ID Business Solutions).
Human Mer (residues R557-E882 with H628Q and R794A, 0.7 nM) was incubated with 8 mM MOPS pH 7.0, 0.2 mM EDTA, 30 mM NaCl, 250 μM GGMEDIYFEFMGGKKK (SEO ID NO. 44). 10 mM magnesium acetate, and 10 μM [γ-^33P-ATP]. The reaction was initiated by the addition of the Mg/ATP mix. After incubation for 40 minutes at room temperature, the reaction was stopped by the addition of phosphoric acid to a concentration of 0.5%. A reaction aliquot of 10 μL was then spotted onto a P30 filtermat and washed four times for 4 minutes in 0.425% phosphoric acid and once in methanol prior to drying and scintillation counting. Incorporated ^33P was measured using the Wallac Microbeta scintillation counter (Perkin Elmer).

[2] = target: KDR (Homo sapiens (Human), UniProt P35968); assay: KDR autophosphorylation ELISA in HUVEC cells; format: cell-based; conditions: cellular, VEGF165 stimulated
Chain of KDR (P35968 20-1356): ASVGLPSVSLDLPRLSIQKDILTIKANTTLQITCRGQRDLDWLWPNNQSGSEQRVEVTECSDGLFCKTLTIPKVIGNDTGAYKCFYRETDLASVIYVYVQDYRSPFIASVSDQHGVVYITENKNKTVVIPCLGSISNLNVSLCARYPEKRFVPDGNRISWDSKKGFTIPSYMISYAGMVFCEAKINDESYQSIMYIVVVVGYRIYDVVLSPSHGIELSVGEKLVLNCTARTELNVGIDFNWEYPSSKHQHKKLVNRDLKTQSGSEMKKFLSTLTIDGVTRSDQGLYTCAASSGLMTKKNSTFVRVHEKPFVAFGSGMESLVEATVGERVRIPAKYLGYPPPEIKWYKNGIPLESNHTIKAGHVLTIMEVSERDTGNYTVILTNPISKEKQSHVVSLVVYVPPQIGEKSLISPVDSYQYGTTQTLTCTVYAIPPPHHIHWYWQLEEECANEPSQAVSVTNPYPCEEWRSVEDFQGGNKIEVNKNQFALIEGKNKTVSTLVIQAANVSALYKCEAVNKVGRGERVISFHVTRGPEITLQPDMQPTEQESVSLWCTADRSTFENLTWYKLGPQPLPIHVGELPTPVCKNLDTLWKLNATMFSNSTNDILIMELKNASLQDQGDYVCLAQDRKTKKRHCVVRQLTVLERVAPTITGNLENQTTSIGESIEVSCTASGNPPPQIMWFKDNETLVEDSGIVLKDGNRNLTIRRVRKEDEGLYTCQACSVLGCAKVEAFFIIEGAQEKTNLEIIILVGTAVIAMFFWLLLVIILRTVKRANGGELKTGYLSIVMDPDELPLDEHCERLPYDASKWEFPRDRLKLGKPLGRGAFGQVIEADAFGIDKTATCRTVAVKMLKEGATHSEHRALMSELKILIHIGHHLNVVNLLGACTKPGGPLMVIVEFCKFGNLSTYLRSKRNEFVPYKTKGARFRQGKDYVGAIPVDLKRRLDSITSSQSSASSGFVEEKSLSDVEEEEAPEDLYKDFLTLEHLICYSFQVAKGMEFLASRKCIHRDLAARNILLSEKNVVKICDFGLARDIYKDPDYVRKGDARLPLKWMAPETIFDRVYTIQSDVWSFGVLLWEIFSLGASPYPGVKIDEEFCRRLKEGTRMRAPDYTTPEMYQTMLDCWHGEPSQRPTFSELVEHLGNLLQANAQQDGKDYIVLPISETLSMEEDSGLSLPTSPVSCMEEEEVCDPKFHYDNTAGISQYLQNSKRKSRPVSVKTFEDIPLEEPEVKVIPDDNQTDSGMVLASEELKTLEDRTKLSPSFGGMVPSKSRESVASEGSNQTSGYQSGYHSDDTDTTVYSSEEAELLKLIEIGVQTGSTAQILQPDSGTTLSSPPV
Description: Human umbilical vein endothelial cells or HUVEC (Lonza #C2519A) were seeded at 2×10^4 cells/well onto 96-well plates (Corning #3904), in EGM-2 growth medium (Lonza #CC-3162) containing 1% Penicillin Streptomycin (Thermo Fisher #15140-122). HUVEC cells were incubated at 37° C., 5% CO2 for 24 h and then starved for 24 h in serum-free EBM-2 basal medium (Lonza #CC-3156) containing 1% Penicillin Streptomycin. Test compounds were serially diluted to produce an 8-point dose curve in fresh serum-free medium to a final concentration of 0.3% DMSO (vehicle) and added to the cells and incubated for 1 h. Cells were then stimulated with 100 ng/mL recombinant human VEGF165 (R&D Systems #293-VE-500) for 5 min, washed with cold PBS, and immediately lysed with 130 μL of cold 1× lysis buffer [20 mM Tris, 137 mM sodium chloride, 2 mM EDTA, 10% glycerol, 1% NP-40 alternative, 1 mM activated sodium orthovanadate, 1 mM PefaBloc SC (Sigma-Aldrich #11429868001), protease/phosphatase inhibitor tablet (Thermo Fisher #A32959)]. Lysates were collected and 100 μL/well added into the human phospho-KDR DuoSet IC ELISA (R&D Systems #DYC1766-2). Assay was performed according to manufacturer's instructions and sample phospho-KDR concentrations were extrapolated using human phospho-KDR control (R&D Systems #841421) as a standard. Positive control wells (100% activity) contained VEGF165-stimulated, DMSO-treated cell lysates. Negative control wells (0% activity) contained non-stimulated cell lysates. IC50 values were calculated by nonlinear regression analysis using a 4-parameter logistic curve fit in ActivityBase XE (IDBS).

[3] = target: Human Met (residues R974-S1390 with A1209G and V1290L) (Homo sapiens, UniProt P08581); assay: Human Met kinase assay (33P radiometric, KinaseProfiler); format: biochemical; conditions: 10 μM ATP, read-out: c-Met IC50
Description: as §1
Human Met (residues R974-S1390 with A1209G and V1290L, 3.4 nM) was incubated with 8 mM MOPS pH 7.0, 0.2 mM EDTA, 250 μM KKKGQEEEYVFIE (SEO ID NO. 45), 1 mM sodium orthovanadate, 5 mM […], 10 mM magnesium acetate, and 10 μM [γ-33P-ATP]. The reaction was initiated by the addition of the Mg/ATP mix. After incubation for 40 minutes at room temperature, the reaction was stopped by the addition of phosphoric acid to a concentration of 0.5%. A reaction aliquot of […] was then spotted onto a P30 filtermat and washed four times for 4 minutes in 0.425% phosphoric acid and once in methanol prior to drying and scintillation counting. Incorporated 33P was measured using the Wallac Microbeta scintillation counter (Perkin Elmer).

[4] = target: Met (Homo sapiens (Human), UniProt P08581); assay: Met autophosphorylation ELISA in PC-3 cells; format: cell-based; conditions: cellular, HGF stimulated, read-out: c-Met IC50
Chain of Met (P08581 25-1390): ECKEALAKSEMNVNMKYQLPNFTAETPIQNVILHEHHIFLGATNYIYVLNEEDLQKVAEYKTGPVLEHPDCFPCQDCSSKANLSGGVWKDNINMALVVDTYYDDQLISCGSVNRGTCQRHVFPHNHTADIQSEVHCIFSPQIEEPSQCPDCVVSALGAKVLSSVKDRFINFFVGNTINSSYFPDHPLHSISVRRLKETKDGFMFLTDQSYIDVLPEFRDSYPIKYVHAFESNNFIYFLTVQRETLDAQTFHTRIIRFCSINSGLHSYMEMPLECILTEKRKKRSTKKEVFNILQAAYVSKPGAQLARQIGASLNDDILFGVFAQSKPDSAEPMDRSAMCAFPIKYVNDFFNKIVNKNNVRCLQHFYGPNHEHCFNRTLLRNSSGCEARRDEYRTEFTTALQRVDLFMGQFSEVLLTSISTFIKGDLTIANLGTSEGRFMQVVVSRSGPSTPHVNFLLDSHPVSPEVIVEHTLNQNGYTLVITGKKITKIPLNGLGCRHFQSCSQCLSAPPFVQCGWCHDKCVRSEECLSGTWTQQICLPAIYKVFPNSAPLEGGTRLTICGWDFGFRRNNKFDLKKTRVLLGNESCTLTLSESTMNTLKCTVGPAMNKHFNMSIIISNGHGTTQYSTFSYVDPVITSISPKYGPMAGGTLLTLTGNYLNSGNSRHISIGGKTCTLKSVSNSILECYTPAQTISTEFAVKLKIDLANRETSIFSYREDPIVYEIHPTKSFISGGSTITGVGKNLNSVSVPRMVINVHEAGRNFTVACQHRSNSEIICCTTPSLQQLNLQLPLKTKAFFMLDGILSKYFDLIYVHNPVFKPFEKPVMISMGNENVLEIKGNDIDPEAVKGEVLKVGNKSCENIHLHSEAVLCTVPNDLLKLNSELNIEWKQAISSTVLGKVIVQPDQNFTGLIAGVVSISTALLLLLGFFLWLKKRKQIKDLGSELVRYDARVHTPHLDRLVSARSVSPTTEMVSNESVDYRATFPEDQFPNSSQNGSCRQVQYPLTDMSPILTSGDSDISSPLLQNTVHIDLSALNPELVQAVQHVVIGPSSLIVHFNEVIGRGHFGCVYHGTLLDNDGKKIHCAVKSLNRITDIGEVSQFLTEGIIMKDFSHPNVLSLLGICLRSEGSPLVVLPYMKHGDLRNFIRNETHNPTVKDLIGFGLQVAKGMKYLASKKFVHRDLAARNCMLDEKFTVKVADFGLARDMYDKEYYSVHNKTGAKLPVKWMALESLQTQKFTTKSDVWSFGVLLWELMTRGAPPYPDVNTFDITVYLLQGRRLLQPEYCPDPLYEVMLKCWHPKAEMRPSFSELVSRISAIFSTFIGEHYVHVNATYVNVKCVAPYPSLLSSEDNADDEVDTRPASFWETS
Description: PC-3 prostate cancer cells (ATCC #CRL-1435) were seeded at 4×10^4 cells/well onto 24-well plates (Greiner #662165), in DMEM (Thermo Fisher #11995-040) containing 10% FBS (Thermo Fisher #26140-079), 1% MEM NEAA (Thermo Fisher #11140-050), 1% GlutaMax (Thermo Fisher #35050-061), and 1% Penicillin Streptomycin (Thermo Fisher #15140-122). PC-3 cells were incubated at 37° C., 5% CO2 for 24 h and then starved for 3 h in serum-free medium. Test compounds were serially diluted to produce an 8-point dose curve in fresh serum-free medium to a final concentration of 0.3% DMSO (vehicle) and added to the cells and incubated for 1 h. Cells were then stimulated with 100 ng/mL recombinant human HGF (R&D Systems #294-HG-250) for 10 min, washed with cold PBS and immediately lysed with 130 μL of cold 1× lysis buffer [20 mM Tris, 137 mM sodium chloride, 2 mM EDTA, 10% glycerol, 1% NP-40 alternative, 1 mM activated sodium orthovanadate, 1 mM PefaBloc SC (Sigma-Aldrich #11429868001), protease/phosphatase inhibitor tablet (Thermo Fisher #A32959)]. Lysates were clarified by centrifugation and 100 μL/well added into the PathScan phospho-Met (panTyr) Sandwich ELISA (Cell Signaling Technology #7333). Assay was performed according to manufacturer's instructions. Positive control wells (100% activity) contained HGF-stimulated, DMSO-treated cell lysates. Negative control wells (0% activity) contained HGF-stimulated, reference inhibitor-treated cell lysates. IC50 values were calculated by nonlinear regression analysis using a 4-parameter logistic curve fit in ActivityBase XE (IDBS).

[5] = target: AXL (Homo sapiens (Human), UniProt P30530); assay: AXL autophosphorylation ELISA in A-172 cells; format: cell-based; conditions: cellular, Gas6 stimulated
Chain of AXL (P30530 26-894): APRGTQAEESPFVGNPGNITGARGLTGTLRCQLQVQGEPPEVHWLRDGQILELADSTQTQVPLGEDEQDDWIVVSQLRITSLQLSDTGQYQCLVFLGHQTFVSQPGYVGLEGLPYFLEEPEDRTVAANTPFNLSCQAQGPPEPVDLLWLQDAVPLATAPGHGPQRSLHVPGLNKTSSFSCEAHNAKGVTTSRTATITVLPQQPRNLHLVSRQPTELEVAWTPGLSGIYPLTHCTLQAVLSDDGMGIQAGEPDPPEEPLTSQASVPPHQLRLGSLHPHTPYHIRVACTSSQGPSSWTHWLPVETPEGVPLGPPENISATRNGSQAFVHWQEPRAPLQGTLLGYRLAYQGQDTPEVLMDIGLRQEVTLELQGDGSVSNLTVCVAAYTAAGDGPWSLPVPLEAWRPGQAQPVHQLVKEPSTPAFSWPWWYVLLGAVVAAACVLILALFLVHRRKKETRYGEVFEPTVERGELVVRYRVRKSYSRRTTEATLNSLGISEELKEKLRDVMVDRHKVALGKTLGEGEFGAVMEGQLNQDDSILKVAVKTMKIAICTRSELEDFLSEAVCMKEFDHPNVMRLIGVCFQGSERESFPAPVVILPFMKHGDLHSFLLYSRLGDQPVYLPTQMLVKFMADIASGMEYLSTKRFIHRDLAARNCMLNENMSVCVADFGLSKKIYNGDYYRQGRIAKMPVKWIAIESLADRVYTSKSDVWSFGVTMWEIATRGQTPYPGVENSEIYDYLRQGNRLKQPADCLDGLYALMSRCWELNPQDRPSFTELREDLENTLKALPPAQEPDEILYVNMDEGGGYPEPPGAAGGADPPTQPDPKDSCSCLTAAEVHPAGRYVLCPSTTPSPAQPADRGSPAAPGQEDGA
Description: A-172 glioblastoma cells (ATCC #CRL-1620) were seeded at 2.5×10^5 cells/well onto 24-well plates (Greiner #662165), in DMEM (Thermo Fisher #11995-040) containing 10% FBS (Thermo Fisher #26140-079), 1% MEM NEAA (Thermo Fisher #11140-050), 1% GlutaMax (Thermo Fisher #35050-061) and 1% Penicillin Streptomycin (Thermo Fisher #15140-122). A-172 cells were incubated at 37° C., 5% CO2 for 24 h and then starved for 24 h in serum-free medium. Test compounds were serially diluted to produce an 8-point dose curve in fresh serum-free medium to a final concentration of 0.3% DMSO (vehicle) and added to the cells and incubated for 1 h. Cells were then stimulated with 1 μg/mL recombinant human Gas6 (R&D Systems #885-GSB-500) for 15 min, washed with cold PBS and immediately lysed with 150 μL of cold 1× lysis buffer [20 mM Tris, 137 mM sodium chloride, 2 mM EDTA, 10% glycerol, 1% NP-40 alternative, 1 mM activated sodium orthovanadate, 1 mM PefaBloc SC (Sigma-Aldrich #11429868001), protease/phosphatase inhibitor tablet (Thermo Fisher #A32959)]. Lysates were collected and 100 μL/well added into the human phospho-AXL DuoSet IC ELISA (R&D Systems #DYC2228-2). Assay was performed according to manufacturer's instructions and sample phospho-AXL concentrations were extrapolated using human phospho-AXL control (R&D Systems #841645) as a standard. Positive control wells (100% activity) contained Gash-stimulated, DMSO-treated cell lysates. Negative control wells (0% activity) contained Gash-stimulated, reference inhibitor-treated cell lysates. IC50 values were calculated by nonlinear regression analysis using a 4-parameter logistic curve fit in ActivityBase XE (IDBS).

[6] = target: Human Axl (residues H473-A894 with Q764R) (Homo sapiens (Human), UniProt P30530, Q764R); assay: Human AXL kinase assay (33P radiometric, KinaseProfiler); format: biochemical; conditions: 10 μM ATP
Chain of Human Axl (residues H473-A894 with Q764R) (P30530 473-894 Q764R): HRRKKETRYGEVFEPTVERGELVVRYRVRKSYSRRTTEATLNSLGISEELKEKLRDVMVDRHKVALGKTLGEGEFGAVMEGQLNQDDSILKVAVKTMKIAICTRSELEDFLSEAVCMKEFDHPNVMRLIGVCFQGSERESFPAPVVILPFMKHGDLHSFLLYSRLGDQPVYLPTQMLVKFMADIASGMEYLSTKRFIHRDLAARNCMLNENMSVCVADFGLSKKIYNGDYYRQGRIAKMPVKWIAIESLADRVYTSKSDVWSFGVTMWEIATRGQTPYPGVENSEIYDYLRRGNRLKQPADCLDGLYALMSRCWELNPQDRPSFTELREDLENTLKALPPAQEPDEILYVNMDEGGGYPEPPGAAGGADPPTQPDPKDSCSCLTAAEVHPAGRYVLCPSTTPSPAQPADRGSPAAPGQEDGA
Description: as §1
Human Axl (residues H473-A894 with Q764R, 161 nM) was incubated with 8 mM MOPS pH 7.0, 0.2 mM EDTA, 250 μM KKSRGDYMTMQIG (SEO ID NO. 43) 10 mM magnesium acetate and 10 μM [γ-33P-ATP]. The reaction was initiated by the addition of the Mg/ATP mix. After incubation for 40 minutes at room temperature, the reaction was stopped by the addition of phosphoric acid to a concentration of 0.5%. A reaction aliquot of 10 μL was then spotted onto a P30 filtermat and washed four times for 4 minutes in 0.425% phosphoric acid and once in methanol prior to drying and scintillation counting. Incorporated ^33P was measured using the Wallac Microbeta scintillation counter (Perkin Elmer).

Chain of Human Mer (residues R557-E882 with H628Q and R794A) (Q12866 557-882, stated change not applied): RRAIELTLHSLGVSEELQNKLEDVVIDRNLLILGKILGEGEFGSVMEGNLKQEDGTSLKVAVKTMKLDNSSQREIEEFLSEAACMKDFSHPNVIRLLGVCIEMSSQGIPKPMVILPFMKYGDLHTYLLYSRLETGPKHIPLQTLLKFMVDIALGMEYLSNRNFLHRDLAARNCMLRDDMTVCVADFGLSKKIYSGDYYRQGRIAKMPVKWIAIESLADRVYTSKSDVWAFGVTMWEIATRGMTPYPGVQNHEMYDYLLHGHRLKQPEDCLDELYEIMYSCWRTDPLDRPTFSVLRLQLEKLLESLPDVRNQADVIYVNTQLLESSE

| IC50 [1] [nM] | IC50 [2] [nM] | IC50 [3] [nM] | IC50 [4] [nM] | IC50 [5] [nM] | IC50 [6] [nM] | SMILES |
| --- | --- | --- | --- | --- | --- | --- |
| > 1000 |  | > 1000 |  |  | > 1000 | Cc1cc2c(Oc3ccc(NC(=O)C4(C(=O)Nc5ccc(F)cc5)CC4)cc3)ccnc2cc1C(=O)O [Compound 141, 4-[4-[[1-[(4-fluorophenyl)carbamoyl]cyclopropanecarbonyl]amino]phenoxy]-6-methylquinoline-7-carboxylic acid] |
| 10 to 100 |  | 10 to 100 |  |  | 100 to 1000 | NC(=O)c1cc2c(Oc3ccc(NC(=O)C4(C(=O)Nc5ccc(F)cc5)CC4)cc3)ccnc2cc1Cl [Compound 68, 1-N-[4-(6-carbamoyl-7-chloroquinolin-4-yl)oxyphenyl]-1-N′-(4-fluorophenyl)cyclopropane-1,1-dicarboxamide] |
| 10 to 100 |  | 10 to 100 |  |  | 100 to 1000 | NC(=O)c1cc2c(Oc3ccc(NC(=O)C4(C(=O)Nc5ccc(F)cc5)CC4)cc3)ccnc2cc1Br [Compound 69, 1-N-[4-(7-bromo-6-carbamoylquinolin-4-yl)oxyphenyl]-1-N′-(4-fluorophenyl)cyclopropane-1,1-dicarboxamide] |
| 100 to 1000 |  | 10 to 100 |  |  | 100 to 1000 | O=C(O)c1ccc2c(Oc3ccc(NC(=O)C4(C(=O)Nc5ccc(F)cc5)CC4)cc3)ccnc2c1 [Compound 163, 4-[4-[[1-[(4-fluorophenyl)carbamoyl]cyclopropanecarbonyl]amino]phenoxy]quinoline-7-carboxylic acid] |
| ≤ 10 |  | ≤ 10 |  |  | 10 to 100 | COc1cc2nccc(Oc3ccc(NC(=O)C4(C(=O)Nc5ccc(F)cc5)CC4)cc3)c2cc1C(=O)NCCN(C)C [Compound 10, 1-N-[4-[6-[2-(dimethylamino)ethylcarbamoyl]-7-methoxyquinolin-4-yl]oxyphenyl]-1-N′-(4-fluorophenyl)cyclopropane-1,1-dicarboxamide] |

More lines, now with the values behind:

| SMILES | IC50 [1] [nM] | IC50 [2] [nM] | IC50 [3] [nM] | IC50 [4] [nM] | IC50 [5] [nM] | IC50 [6] [nM] |
| --- | --- | --- | --- | --- | --- | --- |
| COc1cc2nccc(Oc3ccc(NC(=O)C4(C(=O)Nc5ccc(F)cc5)CC4)cc3)c2cc1C(=O)NCCN1CCOCC1 [Compound 12, 1-N′-(4-fluorophenyl)-1-N-[4-[7-methoxy-6-(2-morpholin-4-ylethylcarbamoyl)quinolin-4-yl]oxyphenyl]cyclopropane-1,1-dicarboxamide] | ≤ 10 | ≤ 10 | ≤ 10 | 10 to 100 | ≤ 10 |  |
| COc1cc2nccc(Oc3ccc(NC(=O)C4(C(=O)Nc5ccc(F)cc5)CC4)cc3)c2cc1C(=O)NC[C@H]1CCCN1 [Compound 21, 1-N′-(4-fluorophenyl)-1-N-[4-[7-methoxy-6-[[(2R)-pyrrolidin-2-yl]methylcarbamoyl]quinolin-4-yl]oxyphenyl]cyclopropane-1,1-dicarboxamide] | ≤ 10 | 10 to 100 | ≤ 10 | 10 to 100 | ≤ 10 |  |
| COc1cc2nccc(Oc3ccc(NC(=O)C4(C(=O)Nc5ccc(F)cc5)CC4)cc3)c2cc1C(=O)NC[C@@H]1CCCN1 [Compound 22, 1-N′-(4-fluorophenyl)-1-N-[4-[7-methoxy-6-[[(2S)-pyrrolidin-2-yl]methylcarbamoyl]quinolin-4-yl]oxyphenyl]cyclopropane-1,1-dicarboxamide] | ≤ 10 | 10 to 100 | ≤ 10 | 10 to 100 | ≤ 10 |  |
| COc1cc2nccc(Oc3ccc(NC(=O)C4(C(=O)Nc5ccc(F)cc5)CC4)cc3)c2cc1C(=O)NCCN1CCCCC1 [Compound 11, 1-N′-(4-fluorophenyl)-N-[4-[7-methoxy-6-(2-piperidin-1-ylethylcarbamoyl)quinolin-4-yl]oxyphenyl]cyclopropane-1,1-dicarboxamide] | ≤ 10 | ≤ 10 | ≤ 10 | 10 to 100 | ≤ 10 |  |
